Assay results taken from patent US4389403A, “1-Aroyl-2-phenylamino-2-imidazolines, drugs containing these compounds, and use thereof” (BASF Aktiengesellschaft, priority 1980, dated 1983).

How the values were obtained:
[1] = tested on: spontaneously hypertonic Okamoto rats (SH rats); experiment: Anti-hypertensive action, systolic blood pressure in spontaneously hypertonic rats, oral; type: in vivo, rat (male spontaneously hypertonic Okamoto rats); details: oral administration; for ED20: Rattus norvegicus, dose lowering systolic pressure by 20%, 2 h after administration, read-out: Anti-hypertensive effect ED 20%; for Anti-hypertensive effect R.E. (relative effectiveness): relative to clonidine = 1.00
Procedure: The compounds are administered orally to groups of 4-8 male spontaneously hypertonic Okamoto rats (SH rats). Before, and two hours after, the administration, the systolic blood pressure is measured on the tail of the rat by means of a piezoelectric sensor.
The ED 20% is determined, from the dose-effect relationship and taking into account the values found with untreated control animals, as the dose which lowers the systolic pressure by 20%.

Acute toxicity (LD 50) = details: rat, in vivo, po
Procedure: To determine the acute toxicity (LD 50), the compounds are administered orally to groups of 10 male Sprague-Dawley rats each weighing 150-320 g. The period of observation is 1 week.

[2] = Narcosis-prolonging action in rats (chloral hydrate narcosis), sedative action; details: rat, in vivo, po
Procedure: (§1) The time at which the righting reflex ceases to function is measured.
(§2) The reference substances were the conventional anti-hypertensive agents clonidine and benclonidine.
(§3) An undesired side-effect of clonidine is the central-suppressive (sedative) action, which was tested using, as a model, the prolongation of chloral hydrate narcosis.

[3] = tested on: chloral hydrate narcosis in Sprague-Dawley rats; experiment: as above; details: for Narcosis-prolonging effect R.E. (relative effectiveness): rats, oral administration, relative to clonidine = 1.00
Procedure: as §1, §2, §3

[4] = German Published Application DAS No. 2,559,711; cited from earlier work
[5] = compared with clonidine; DAS No. 2,559,711; cited from earlier work
[6] = DAS No. 2,559,711; cited from earlier work

SMILES	ED20 [1] [mg/kg]	Anti-hypertensive effect R.E. (relative effectiveness) [1]	LD50 at 168 h (Acute toxicity (LD 50)) [mg/kg]	ED50 [2] [mg/kg]	selectivity ratio [2]	ratio of sedative to anti-hypertensive doses compared with clonidine or benclonidine ([3]; compared with clonidine or benclonidine)	Narcosis-prolonging effect R.E. (relative effectiveness) [3]	blood pressure-reducing properties [4]	sedative side-effects [5]	absorption on oral administration [6]
O=C(c1ccc2ccccc2n1)N1CCN=C1Nc1c(Cl)cccc1Cl [Example 45, 1-(quinolin-2-oyl)-2-(2',6'-dichlorophenylamino)-2-imidazoline]	0.0856	0.97	44	0.464	5.42	substantially more advantageous	0.12			
O=C(c1ccccc1)N1CCN=C1Nc1c(Cl)cccc1Cl [Benclonidine, 1-benzoyl-2-(2',6'-dichlorophenylamino)-2-imidazoline]	0.836	0.10	68.1	0.948	1.13		0.06	exhibits blood pressure-reducing properties	lesser sedative side-effects than the parent compound clonidine	efficiently absorbed on oral administration
Clc1cccc(Cl)c1NC1=NCCN1 [Clonidine, 2-(2',6'-dichlorophenylamino)-2-imidazoline]	0.0829	1.00	67.3	0.0565	0.68		1.00	exhibits blood pressure-reducing properties		
O=C(c1cccnc1)N1CCN=C1Nc1c(Cl)cccc1Cl [Example 1, 1-nicotinoyl-2-(2',6'-dichlorophenylamino)-2-imidazoline]	0.0786	1.05	80	0.1	1.27		0.57			
